Where two headings read alike, the source gives them in different places.
How the values were obtained:
[1] = tested on: Six human cancer cell lines (Hs683, U-373MG, HCT-15, LoVo, A549, MCF-7); experiment: MTT test of overall cell growth; format: cell-based
Protocol: In order to characterize the in vitro activity of the compounds of the invention, MTT tests were performed to indirectly and rapidly measure, i.e. within 5 days, the effect of such a compound on the overall cell growth. The test measures the number of metabolically active living cells that are able to transform the yellow product 3-(4,5-dimethylthiazol-2-yl)-2,5-diphenyl tetrazolium bromide (herein referred as MTT) into the blue product formazan dye by mitochondrial reduction. The amount of formazan obtained at the end of the experiment was measured by means of a spectrophotometer and is directly proportional to the number of living cells. Determination of the optical density enables a quantitative measurement of the effect of the investigated compounds as compared to the control condition (untreated cells) and/or to other reference compounds (in casu mitonafide and amonafide).
Six human cancer cell lines described in table 1 were used in the MTT tests. These cell lines cover four histological cancer types, being glioma, colon, lung and breast cancers. Cells were allowed to grow in 96-well micro-wells with a flat bottom with an amount of 100 μl of cell suspension per well with 1,000 to 4,000 cells/well depending on the cell type used. Each cell line was seeded in an MEM 5% serum culture medium.
The detailed experimental procedure was as follows: after a 24-hour period of incubation at 37° C., the culture medium was replaced by 100 μl of fresh medium in which the compound to be tested was dissolved at the following molar concentrations: 10^−9 M, 5.10^−9 M, 10^−8 M, 5.10^−8 M, 10^−7 M, 5.10^−7 M, 10^−6 M, 5.10^−6 M and 10^−5 M. Each experiment was repeated 6 times.
After 72 hours of incubation at 37° C. with (experimental conditions) or without (control condition) the compound to be tested, the medium was replaced by 100 μl MTT dissolved in RPMI at a concentration of 1 mg/ml. The micro-wells were subsequently incubated during 3 hours at 37° C. and centrifuged at 400 g during 10 minutes. MTT was removed and formazan crystals formed were dissolved in 100 μl DMSO. The micro-wells were shaken for 5 minutes and read on a spectrophotometer at wavelengths of 570 nm (maximum formazan absorbance) and 630 nm (background noise).
For each experimental condition, the mean optical density was calculated, as well as the percentage of remaining living cells in comparison with the control.

in vivo = settings: mouse
Protocol: The maximum tolerated dose (herein after MTD) is defined as the maximum amount of a given drug which can be administered acutely (i.e. in one intraperitoneal, intravenous, subcutaneous or oral single dose) to healthy animals, i.e. animals not grafted with tumors. The survival times and weights of the animals are recorded up to 14 days post injection. Five different doses of each drug are used for the determination of the MTD index. […] Each experimental group comprised 3 mice for the determination of the MTD index (expressed in mg/kg).

[2] = Homo sapiens, 72 h, range of molar concentrations giving 50% inhibition of overall tumor cells growth, MTT, 72 hours incubation, six human cancer cell lines, read-out: IC50
[3] = range of molar concentrations giving 50% inhibition of overall tumor cells growth, MTT, 72 hours incubation, six human cancer cell lines, hydrochloride, read-out: IC50
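For MTD in this document: highest single acute dose (intraperitoneal, intravenous, subcutaneous or oral) tolerated by tumor-free mice, assessed across five dose levels per drug.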

**Q.** For `CN(C)CCN1C(=O)c2cccc3cc(NC(=O)NC(=O)CCl)cc(c23)C1=O` [Example 1, 2-chloro-N-[({2-[2-(dimethylamino)ethyl]-1,3-dioxo-2,3-dihydro-1H-benzo[de]isoquinolin-5-yl}amino)carbonyl]acetamide], which IC50 [1, 2] is on record?
**A.** 1 to 5 µM

**Q.** For `CN(C)CCN1C(=O)c2cccc3cc(NC(=O)NC(=O)c4ccccc4)cc(c23)C1=O` [Example 3, N-[({2-[2-(dimethylamino)ethyl]-1.3-dioxo-2,3-dihydro-1H-benzo[de]isoquinolin-5-yl}amino)carbonyl]benzamide], which MTD at 14 days (in vivo; intraperitoneal) is on record?
**A.** 80 mg/kg

**Q.** What about the IC50 [1, 2] of the same compound?
**A.** 1 to 5 µM

**Q.** With `CCOC(=O)NC(=O)Nc1cc2c3c(cccc3c1)C(=O)N(CCN(C)C)C2=O` [Example 4, ethyl({2-[2-(dimethylamino)ethyl]-1.3-dioxo-2,3-dihydro-1H-benzo[de]isoquinolin-5-yl}amino)carbonylcarbamate] as the compound, how does the MTD at 14 days (in vivo) read?
**A.** 80 mg/kg

**Q.** What about the IC50 [1, 2] of the same compound?
**A.** 1 to 5 µM

**Q.** With `CN(C)CCN1C(=O)c2cccc3cc(NC(=O)NCCCl)cc(c23)C1=O` [Example 5, N-[2-[2-(dimethylamino)ethyl]-1,3-dioxo-2,3-dihydro-1H-benzo[de]isoquinolin-5-yl]-N′-(2-chloroethyl)urea] as the compound, how does the MTD at 14 days (in vivo) read?
**A.** > 160 mg/kg

**Q.** What about the IC50 ([1]; Homo sapiens, 72 h) of the same compound?
**A.** 1 to 5 µM

**Q.** Which results are given for `CN(C)CCN1C(=O)c2cccc3cc(NC(=O)Nc4ccc(Cl)cc4)cc(c23)C1=O` [Example 6, N-[2-[2-(dimethylamino)ethyl]-1,3-dioxo-2,3-dihydro-1H-benzo[de]isoquinolin-5-yl]-N′-(4-chlorophenyl)urea]?
**A.** MTD at 14 days (in vivo; intraperitoneal): > 160 mg/kg; IC50 [1, 2]: 1 to 5 µM

**Q.** What does the source list for `CCOC(=O)c1ccc(NC(=O)Nc2cc3c4c(cccc4c2)C(=O)N(CCN(C)C)C3=O)cc1` [Example 8]?
**A.** MTD at 14 days (in vivo; intraperitoneal): > 160 mg/kg; IC50 [1, 2]: 1 to 5 µM

**Q.** What does the source list for `CCOC(=O)CCC(=O)Nc1cc2c3c(cccc3c1)C(=O)N(CCN(C)C)C2=O` [Example 11]?
**A.** MTD at 14 days (in vivo; intraperitoneal): > 160 mg/kg; IC50 [1, 2]: > 10 µM

**Q.** For `CN(C)CCN1C(=O)c2cccc3cc(NC(=O)CCCCl)cc(c23)C1=O` [Example 12, 4-chloro-N-{2-[2-(dimethylamino)ethyl]-1,3-dioxo-2,3-dihydro-1H-benzo[de]isoquinolin-5-yl}butanamide], which IC50 [1, 2] is on record?
**A.** > 10 µM

**Q.** Which IC50 [1, 2] does the source give for `CN(C)CCN1C(=O)c2cccc3cc(NC(=O)Cc4ccc(Cl)cc4)cc(c23)C1=O` [Example 13, 2-(4-chlorophenyl)-N-{2-[2-(dimethylamino)ethyl]-1,3-dioxo-2,3-dihydro-1H-benzo[de]isoquinolin-5-yl}acetamide] here?
**A.** 5 to 10 µM

**Q.** Which IC50 [1, 2] does the source give for `CCOC(=O)CC(=O)Nc1cc2c3c(cccc3c1)C(=O)N(CCN(C)C)C2=O` [Example 14, ethyl 3-({2-[2-(dimethylamino)ethyl]-1,3-dioxo-2,3-dihydro-1H-benzo[de]isoquinolin-5-yl}amino)-3-oxopropanoate] here?
**A.** > 10 µM

**Q.** For `COc1ccc(CC(=O)Nc2cc3c4c(cccc4c2)C(=O)N(CCN(C)C)C3=O)cc1` [Example 15, 2-(4-methoxyphenyl)-N-{2-[2-(dimethyl-amino)ethyl]-1,3-dioxo-2,3-dihydro-1H-benzo[de]isoquinolin-5-yl}acetamide], which IC50 [1, 2] is on record?
**A.** 1 to 5 µM

**Q.** With `CN(C)CCN1C(=O)c2cccc3cc(NC(=O)C(Cl)(Cl)Cl)cc(c23)C1=O` [Example 16, 2,2,2-trichloro-N-{2-[2-(dimethylamino)ethyl]-1,3-dioxo-2,3-dihydro-1H-benzo[de]isoquinolin-5-yl}acetamide] as the compound, how does the MTD at 14 days (in vivo) read?
**A.** > 80 mg/kg

**Q.** What about the IC50 [1, 2] of the same compound?
**A.** > 10 µM

**Q.** Which results are given for `COc1cc(C=Nc2cc3c4c(cccc4c2)C(=O)N(CCN(C)C)C3=O)ccc1O` [Example 18, 5-{[(1Z)-(4-hydroxy-3-methoxyphenyl)methylene]amino}-2-[2-(dimethylamino)ethyl]l-1H-benzo[de]isoquinoline-1,3(2H)-dione]?
**A.** MTD at 14 days (in vivo): > 80 mg/kg; IC50 [1, 2]: > 10 µM

**Q.** Which results are given for `COc1cc(/C=N\c2cc3c4c(cccc4c2)C(=O)N(CCN(C)C)C3=O)cc(OC)c1OC` [Example 20, 2-[2-(dimethylamino)ethyl]-5-{[(1Z)-(3,4,5-trimethoxyphenyl)methylene]amino}-1H-benzo[de]isoquinoline-1,3(2H)-dione]?
**A.** MTD at 14 days (in vivo): > 80 mg/kg; IC50 [1, 2]: 5 to 10 µM

**Q.** With `CN(C)CCN1C(=O)c2cccc3cc(NC(=S)Nc4ccc(OC(F)(F)F)cc4)cc(c23)C1=O` [Example 21] as the compound, how does the IC50 [1, 2] read?
**A.** 1 to 5 µM

**Q.** What does the source list for `CN(C)CCN1C(=O)c2cccc3cc(NC(=S)NCc4ccc5c(c4)OCO5)cc(c23)C1=O` [Example 22]?
**A.** MTD at 14 days (in vivo): > 80 mg/kg; IC50 [1, 2]: > 10 µM

**Q.** Which MTD at 14 days (in vivo) does the source give for `CN(C)CCN1C(=O)c2cccc3cc(NC(=S)Nc4ccc(Cl)cc4)cc(c23)C1=O` [Example 26, N-[2-[2-(dimethylamino)ethyl]-1,3-dioxo-2,3-dihydro-1H-benzo[de]isoquinolin-5-yl]-N′-(4-chlorophenyl)thiourea] here?
**A.** > 80 mg/kg

**Q.** And the IC50 [1, 2]?
**A.** > 10 µM

**Q.** For `CN(C)CCN1C(=O)c2cccc3cc(NC(=S)Nc4ccc(C#N)cc4)cc(c23)C1=O` [Example 27, N-[2-[2-(dimethylamino)ethyl]-1,3-dioxo-2,3-dihydro-1H-benzo[de]isoquinolin-5-yl]-N′-(4-cyanophenyl)thiourea], which MTD at 14 days (in vivo) is on record?
**A.** > 80 mg/kg

**Q.** And the IC50 [1, 2]?
**A.** > 10 µM

**Q.** Which MTD at 14 days (in vivo) does the source give for `CN(C)CCN1C(=O)c2cccc3cc(N=Cc4ccc(C#N)cc4)cc(c23)C1=O` [Example 28, 2-[2-dimethylamino)ethyl]-5-{[(1Z)-(4-cyano-phenyl)-5-ylmethylene]amino}-1H-benzo[de]isoquinolin-1,3(2H)-dione] here?
**A.** > 80 mg/kg

**Q.** What about the IC50 [1, 2] of the same compound?
**A.** 5 to 10 µM

**Q.** With `CN(C)CCN1C(=O)c2cccc3cc(NC(=O)C(F)(F)F)cc(c23)C1=O` [Example 29, 2,2,2-trifluoro-N-{2-[2-(dimethylamino)ethyl]-1,3-dioxo-2,3-dihydro-1H-benzo[de]isoquinolin-5-yl}acetamide] as the compound, how does the IC50 [1, 2] read?
**A.** 5 to 10 µM

**Q.** Which IC50 [1, 2] does the source give for `COc1ccc(NC(=O)Nc2cc3c4c(cccc4c2)C(=O)N(CCN(C)C)C3=O)cc1` [Example 30] here?
**A.** 1 to 5 µM

**Q.** Which IC50 ([1]; Homo sapiens, 72 h) does the source give for `COc1ccc(OC(=O)Nc2cc3c4c(cccc4c2)C(=O)N(CCN(C)C)C3=O)cc1` [Example 31] here?
**A.** 10 µM

**Q.** Which IC50 [1, 2] does the source give for `CN(C)CCN1C(=O)c2cccc3cc(NC(=O)c4ccccc4)cc(c23)C1=O` [Example 32, 2-[2-(dimethylamino)ethyl]-1,3-dioxo-2,3-dihydro-1H-benzo[de]isoquinolin-5-ylbenzamide] here?
**A.** > 10 µM

**Q.** Which IC50 ([1]; read-out: IC50) does the source give for `CN(C)CCN1C(=O)c2cccc3cc(/N=C\c4cc(O)ccc4O)cc(c23)C1=O.Cl` [Example 34, 2-[2-dimethylamino)ethyl]-5-{[(1Z)-(2,5-dihydroxyphenyl)methylene]amino}-1H-benzo[de]isoquinolin-1,3(2H)-dione hydrochloride] here?
**A.** 1 to 5 µM

**Q.** For `CN(C)CCN1C(=O)c2cccc3cc(NCc4ccc5c(c4)OCO5)cc(c23)C1=O` [Example 36, 5-{[1,3-benzodioxol-5-ylmethyl]amino}-N-(2-[2-dimethylamino)ethyl]-1H-benzo[de]isoquinolin-1,3(2H)-dione], which MTD at 14 days (in vivo) is on record?
**A.** > 80 mg/kg

**Q.** And the IC50 [1, 2]?
**A.** 5 to 10 µM

**Q.** With `CN(C)CCN1C(=O)c2cccc3cc(NCc4ccccc4OC4OC(CO)C(O)C(O)C4O)cc(c23)C1=O` (stereo not drawn) [Example 37] as the compound, how does the MTD at 14 days (in vivo) read?
**A.** > 80 mg/kg

**Q.** And the IC50 [1, 2]?
**A.** 5 to 10 µM

**Q.** Which MTD at 14 days (in vivo) does the source give for `CN(C)CCN1C(=O)c2cccc3cc(NCc4ccc5c(c4)OCO5)cc(c23)C1=O.Cl` [Example 38, 5-{[1,3-benzodioxol-5-ylmethy]amino}-N-(2-[2-dimethylamino)ethyl]-1H-benzo[de]isoquinolin-1,3(2H)-dione hydrochloride] here?
**A.** > 80 mg/kg

**Q.** For `CN(C)CCN1C(=O)c2cccc3cc(NCc4ccccc4OC4OC(CO)C(O)C(O)C4O)cc(c23)C1=O.Cl` (stereo not drawn) [Example 39, 5-{[2-(2-phenoxy-)-6-hydroxymethyltetrahydro-pyran-3,4,5-triol)-5-ylmethyl]amino}-N-(2-[2-dimethylamino)ethyl]-1H-benzo [de]isoquinolin-1,3(2H)-dione hydrochloride], which IC50 [1, 3] is on record?
**A.** > 10 µM

**Q.** Which MTD at 14 days (in vivo) does the source give for `CN(C)CCN1C(=O)c2cccc3cc(NCc4ccccc4OC4OC(CO)C(O)C(O)C4O)cc(c23)C1=O.Cl` (stereo not drawn) [Example 39] here?
**A.** > 80 mg/kg

**Q.** With `CN(C)CCN1C(=O)c2cccc3cc(NCc4cc5c(cc4[N+](=O)[O-])OCO5)cc(c23)C1=O` [Example 40] as the compound, how does the MTD at 14 days (in vivo) read?
**A.** > 80 mg/kg

**Q.** What about the IC50 [1, 2] of the same compound?
**A.** > 10 µM

**Q.** With `CN(C)CCN1C(=O)c2cccc3cc(NCc4cc5c(cc4[N+](=O)[O-])OCO5)cc(c23)C1=O.Cl` [Example 41, 5-{[(benzo([1,3]dioxol-6-nitro)-5-ylmethyl]amino}-N-(2-[2-dimethylamino)ethyl]-1H-benzo[de]isoquinolin-1,3(2H)-dione hydrochloride] as the compound, how does the IC50 [1, 3] read?
**A.** 5 to 10 µM

**Q.** For `CN(C)CCN1C(=O)c2cccc3cc(NCc4cc5c(cc4[N+](=O)[O-])OCO5)cc(c23)C1=O.Cl` [Example 41], which MTD at 14 days (in vivo) is on record?
**A.** > 80 mg/kg

Source: patent US20070117836A1, “NAPTHALIMIDE DERIVATIVES, METHODS FOR THEIR PRODUCTION AND PHARMACEUTICAL COMPOSITIONS THEREFROM” (priority 2004, published 2007)
